Among the test systems are COLO 205; EKVX; HCT-15; SF-268; HCC 2998; DU-145; ACHN; SF-295; HCT-116; NCI-H23; SR; MCF7; A549; 786-0; NCI-H460; SK-OV-3; NCI/ADR-RES; LOX IMVI; RPMI-8226; SW-620.
Holding throughout (assay): growth of human tumour cells (NCI), 48 h

The source of these data is ChEMBL document CHEMBL1201862, “PubChem BioAssay data set” (2004).

Molecules are shown by their SMILES. Where “and” joins values, the source holds several entries; their conditions need not be identical. Equal values may be shown once.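 Grown in 96-well plates, cells were treated for 48 hours with each compound at five concentrations. Insufficient inhibition: endpoint recorded as highest concentration tested. GI50: concentration for 50% inhibition of growth.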 Calls of active or inactive are those of the source. Cut-off read from the data, not from the text of the source: active = GI50 up to about 1.1 µM and inactive = higher.

Turning to `O=[N+]([O-])/C(C(Cl)=C(Cl)Cl)=C1/OCCS1`, the GI50 with COLO 205 is 19.8 µM (inactive); in the test on EKVX it was 32.1 µM (inactive); in the test with HCT-15 it was 21.3 µM; in the test with SF-268, 25.5 µM (inactive); with HCC 2998 it was 37.9 µM (inactive); in the test with DU-145, 42.2 µM (inactive). In addition, the GI50 in the test on ACHN is 20.4 µM (inactive); with SF-295, 33.9 µM (inactive); with HCT-116, 18 µM (inactive); in the test with NCI-H23, 23.4 µM (inactive); in the test with SR, 30.1 µM (inactive); in the test with MCF7 it was 61.4 µM (inactive). The GI50 in the test with A549 is 23.3 µM (inactive); in the test with 786-0, 23 µM (inactive); in the test with NCI-H460, 27 µM (inactive); in the test with SK-OV-3 it was 48.6 µM (inactive); in the test with NCI/ADR-RES, 17.1 µM (inactive); in the test with LOX IMVI, 21.4 µM (inactive). Moreover, the GI50 in the test on RPMI-8226 was 22.9 µM (inactive).
Take `COc1cc2[nH]c(=O)c3cc(-c4ccccc4)cc4c(Cl)nc(c1OC)c2c43`: the GI50 in the test on COLO 205 is 11.6 µM (inactive); with EKVX, 14 µM (inactive); in the test on HCT-15, 9.55 µM; in the test with SF-268, 16.1 µM (inactive); with HCC 2998 it was 23.6 µM (inactive); in the test on DU-145, 23.6 µM (inactive). Also, the GI50 in the test on SW-620 was 3.37 µM (inactive); in the test with ACHN it was 15.6 µM (inactive); in the test on SF-295, > 49.4 µM (inactive); in the test with HCT-116, 3.1 µM (inactive); with NCI-H23, 15.3 µM (inactive); in the test on SR, 9.89 µM (inactive). The GI50 with MCF7 is 2.36 µM (inactive); with A549, 23.2 µM (inactive); in the test on 786-0, 6.59 µM (inactive); in the test on NCI-H460, 21 µM (inactive); in the test on SK-OV-3, > 47.8 µM (inactive); in the test on NCI/ADR-RES, 7.35 µM (inactive). Besides, the GI50 in the test with LOX IMVI was 6.78 µM (inactive); in the test with RPMI-8226, 13.2 µM (inactive).
`CCCCC(=O)Nc1ccc2cc(C(=O)OC)c(Cl)nc2n1`: the GI50 in the test with COLO 205 is 12.8 µM (inactive); in the test on EKVX it was 59.7 µM (inactive); with HCT-15, over 100 µM; with SF-268, > 100 µM (inactive); in the test with HCC 2998, 10.9 µM (inactive); with DU-145 it was 3.11 µM (inactive). Moreover, the GI50 in the test with SW-620 is > 100 µM (inactive); in the test with ACHN it was > 100 µM (inactive); in the test with SF-295 it was 40.1 µM (inactive); with HCT-116 it was > 93.5 µM (inactive); in the test on NCI-H23, > 100 µM (inactive); in the test with SR, > 100 µM (inactive). Further, the GI50 with MCF7 was 13.3 µM (inactive); with A549, > 100 µM (inactive); with 786-0 it was > 100 µM (inactive); in the test with NCI-H460, 44.2 µM (inactive); in the test with SK-OV-3 it was > 100 µM (inactive); in the test on NCI/ADR-RES it was > 100 µM (inactive). Moreover, the GI50 in the test on LOX IMVI is > 100 µM (inactive); in the test on RPMI-8226, 9.75 µM (inactive).
As to `C[C@]12CCC3C4=C(CCC3C1CCC2=O)C(=O)[C@H]1O[C@H]1C4=O` (some centres not stated), the GI50 was 4.33 µM (inactive) in the test on COLO 205; 14.3 µM (inactive) with EKVX; 1.36 µM with HCT-15; 2.31 µM (inactive) in the test on SF-268; 1.9 µM (inactive) with HCC 2998; 3.12 µM (inactive) in the test with DU-145. Further, the GI50 is 1.78 µM (inactive) in the test with SW-620; 2.57 µM (inactive) in the test with ACHN; 15.3 µM (inactive) with SF-295; 0.453 µM (active) in the test with HCT-116; 2.77 µM (inactive) with NCI-H23; 0.538 µM (active) with SR. Moreover, the GI50 was 2.18 µM (inactive) with MCF7; 11 µM (inactive) in the test on A549; 1.83 µM (inactive) in the test on 786-0; 7.46 µM (inactive) with NCI-H460; 13.9 µM (inactive) in the test with SK-OV-3; 4.02 µM (inactive) in the test with NCI/ADR-RES. Further, the figures for the GI50 in the test on LOX IMVI and in the test with RPMI-8226 were 1.89 µM (inactive) and 0.641 µM (active), respectively.
On to `C[C@@]12C=CC3C/C(=N\C(N)=S)C=C(CCCC4OCCO4)[C@]3(CC1)C2` (some centres not stated), for which the GI50 was 13.2 µM (inactive) with COLO 205; 10.3 µM (inactive) in the test with EKVX; 17.7 µM in the test with HCT-15; 29.4 µM (inactive) with SF-268; 15.1 µM (inactive) in the test with HCC 2998; 21 µM (inactive) with DU-145. The GI50 was 20.8 µM (inactive) in the test on SW-620; 28.6 µM (inactive) with ACHN; 23.1 µM (inactive) in the test with SF-295; 13.7 µM (inactive) in the test with HCT-116; 21.3 µM (inactive) in the test with NCI-H23; 15.1 µM (inactive) in the test with SR. For the same compound, the GI50 is 10.8 µM (inactive) in the test with MCF7; 21.1 µM (inactive) in the test with A549; 19.3 µM (inactive) with 786-0; 15.6 µM (inactive) in the test with NCI-H460; 49.2 µM (inactive) in the test on SK-OV-3; 15.8 µM (inactive) in the test on NCI/ADR-RES. Moreover, the GI50 with LOX IMVI is 17.4 µM (inactive); in the test with RPMI-8226 it was 16.2 µM (inactive).
For `COc1ccc(/C=C2/N/C(=N\N=C/C(O)C(O)C(O)CO)NC2=O)cc1` (configuration not stated), the GI50 in the test with COLO 205 is 91.4 µM (inactive); in the test with EKVX, > 100 µM (inactive); in the test with HCT-15, over 100 µM; with SF-268, 57.5 µM (inactive); with HCC 2998, 58.5 µM (inactive); in the test with DU-145, > 100 µM (inactive) and 71.3 µM (inactive). Further, the GI50 was > 100 µM (inactive) and 77.8 µM (inactive) in the test on SW-620; > 100 µM (inactive) and 89.5 µM (inactive) in the test with ACHN; > 100 µM (inactive) in the test on SF-295; > 100 µM (inactive) in the test on HCT-116; > 100 µM (inactive) with SR; 15.9 µM (inactive) in the test with MCF7. In addition, the GI50 is > 100 µM (inactive) in the test with A549; > 100 µM (inactive) and 62.4 µM (inactive) in the test with 786-0; > 100 µM (inactive) with NCI-H460; 73.6 µM (inactive) in the test on SK-OV-3; > 100 µM (inactive) in the test with NCI/ADR-RES; > 100 µM (inactive) in the test with LOX IMVI. In addition, the GI50 in the test on RPMI-8226 was > 100 µM (inactive).
Regarding `NCCCCNCCCNC(=O)CNC(=O)CC(O)C(N)CCCC(NC(=O)C(CN)NC(=O)C(O)CNC(=O)CC(N)c1ccc(O)cc1)C(=O)O` (configuration not stated), the GI50 with COLO 205 was > 10 µM (inactive); in the test on EKVX, > 10 µM (inactive); in the test on HCT-15 it was over 10 µM; in the test on SF-268, > 10 µM (inactive); in the test with HCC 2998, > 10 µM (inactive); in the test on DU-145, > 10 µM (inactive). Moreover, the GI50 in the test with ACHN, in the test with SF-295, in the test with HCT-116, in the test with NCI-H23, in the test with SR and in the test on MCF7 was > 10 µM (inactive) in each case. For the same compound, the GI50 in the test on A549, in the test with 786-0, with NCI-H460, in the test with SK-OV-3, with NCI/ADR-RES and in the test with LOX IMVI was > 10 µM (inactive) in each case. Also, the GI50 with RPMI-8226 was > 10 µM (inactive).
